Laboratory results from patent US20030215462A1, “Use of UGT inhibitors to increase bioavailability” (priority 2001, published 2003).
Several values for one entry are separate records, joined by “and”; a condition that tells them apart may be missing. Identical values can stand only once.

How the values were obtained:
Type in all cases: biochemical
[1] = test system: T1, UGT enzymes of human liver microsomes; experiment: Inhibition of 2ME2 glucuronidation (MG1, MG2) in human liver microsomes; conditions: liver 062101, 2ME2 50 μM
T1 construct: other: liver 062101
Description: (§1) Compounds were eluted using a binary solvent gradient system where solvent A was dilute phosphoric acid (pH 3) and solvent B was 80:20 acetonitrile-methanol. […] Detection was at 280 nm.

[2] = test system: UGT enzymes of pooled human jejunum microsomes; experiment: Inhibition of raloxifene glucuronidation (G1, G2) in pooled human jejunum microsomes; conditions: jejunum HJ61
Description: Compounds were eluted using a binary solvent gradient system. […] Solvent B was methanol. […] Detection was at 280 nm.
Standardized incubations utilized […] microsomal protein, 1 mM UDPGA and a 30 min incubation time.

[3] = target: T2, UGT enzymes of human liver microsomes; experiment: Inhibition of 7-HFC glucuronidation in human liver microsomes; conditions: for IC50 / % of control metabolism (SD, n = 3), 7-HFC glucuronidation: 7-HFC 50 μM, 15 min; for IC50: 1 mM UDPGA; for % of control metabolism (SD, n = 3), 7-HFC glucuronidation: human liver microsomes 100 μg/ml
T2 construct: percentage of control metabolism, 7-HFC glucuronidation; percentage of control metabolism, 7-HFC glucuronidation

[4] = test system: UGT enzymes of human liver microsomes; experiment: Kinetic and Ki studies of inhibitors of 7-HFC glucuronidation in human liver microsomes; conditions: for Inhibition Type: highest inhibitor concentration only; for Ki: highest inhibitor concentration only (tannic acid 0, 25; octyl gallate and gallocatechin gallate 0, 200 μM), read-out: Ki (apparent), 7-HFC glucuronidation
[5] = test system: T3, UGT enzymes of human liver microsomes; experiment: Inhibition of estradiol (E2) glucuronidation in human liver microsomes; conditions: liver 032101, E2 50 μM
T3 construct: residual metabolism (% of control), E2-17-β-D-glucuronide; other: liver 032101; residual metabolism (% of control), E2-17-β-D-glucuronide
Description: as §1

[6] = test system: UGT enzymes of human liver microsomes; experiment: as above; conditions: E2 50 μM
Description: as §1

[7] = test system: UGT enzymes of human liver microsomes; experiment: Inhibition of labetalol glucuronidation (LG1, LG2) in human liver microsomes; conditions: labetalol 50 μM

With O=C(O[C@@H]1Cc2c(O)cc(O)cc2O[C@H]1c1cc(O)c(O)c(O)c1)c1cc(O)c(O)c(O)c1 [Gallocatechin gallate] as the compound, how does the “residual metabolism (% of control), 2ME2 MG1” value ([1]; inhibitor 25 μM) read?
The value was 33 (1) %.

And the “residual metabolism (% of control), 2ME2 MG2” value ([1]; inhibitor 25 μM)?
The value was 73 (1) %.

And the “residual metabolism (% of control), 2ME2 MG1” value ([1]; inhibitor 50 μM)?
Its value is 21 (2) %.

What about the “residual metabolism (% of control), 2ME2 MG2” value ([1]; inhibitor 50 μM) of the same compound?
Its value is 61 (1) %.

What about the “residual metabolism (% of control), 2ME2 MG1” value ([1]; inhibitor 100 μM) of the same compound?
Its value is 9 (1) %.

What about the “residual metabolism (% of control), 2ME2 MG2” value ([1]; inhibitor 100 μM) of the same compound?
The value was 36 (1) %.

What about the “% of control metabolism, raloxifene G1” value ([2]; inhibitor 50 μM) of the same compound?
The value was 10 (0), 10 (0) %.

And the “% of control metabolism, raloxifene G2” value ([2]; inhibitor 50 μM)?
The value was 10 (0), 10 (0) %.

And the IC50 [3]?
The IC50 was 100 µM.

And the “percentage of control metabolism, 7-HFC glucuronidation” value (“percentage of control metabolism” below) ([3]; inhibitor 25 μM)?
The value was 80 (2) %.

What about the “% of control metabolism (SD, n = 3), 7-HFC glucuronidation” value ([3]; inhibitor 25 μM) of the same compound?
The value was 80 (2) %.

And the “percentage of control metabolism” value ([3]; inhibitor 50 μM)?
The value was 68 (2) %.

What about the “% of control metabolism (SD, n = 3), 7-HFC glucuronidation” value ([3]; inhibitor 50 μM) of the same compound?
Its value is 68 (2) %.

What about the “percentage of control metabolism” value ([3]; inhibitor 100 μM) of the same compound?
The value was 54 (1) % and 46 (2) %.

What about the “% of control metabolism (SD, n = 3), 7-HFC glucuronidation” value ([3]; inhibitor 100 μM) of the same compound?
Its value is 54 (1) % and 46 (2) %.

What about the “percentage of control metabolism” value ([3]; inhibitor 200 μM) of the same compound?
The value was 25 (0) %.

And the “% of control metabolism (SD, n = 3), 7-HFC glucuronidation” value ([3]; inhibitor 200 μM)?
The value was 25 (0) %.

What about the “percentage of control metabolism” value ([3]; inhibitor 500 μM) of the same compound?
The value was 0 (0) %.

And the “% of control metabolism (SD, n = 3), 7-HFC glucuronidation” value ([3]; inhibitor 500 μM)?
Its value is 0 (0) %.

And the “Inhibition Type” value [4]?
Its value is “Non-competitive”.

What about the Ki [4] of the same compound?
Its Ki is 40 ± 3 µM.

What about the “Inhibition Type” value ([4]; listed as gallocatechin gallate) of the same compound?
Its value is “strictly non-competitive”.

And the “residual metabolism (% of control), E2-17-β-D-glucuronide” value ([5]; inhibitor 50 μM)?
The value was 69 (4) %.

And the “residual metabolism (% of control), E2-3-β-D-glucuronide” value ([6]; liver 062101, inhibitor 50 μM)?
The value was 33 (2) %.

And the “residual metabolism (% of control), E2-17-β-D-glucuronide” value ([6]; liver 062101, inhibitor 50 μM)?
Its value is 55 (2) %.

CCCCCCCCOC(=O)c1cc(O)c(O)c(O)c1 [Octyl gallate] was tested. Which “residual metabolism (% of control), 2ME2 MG1” value ([1]; inhibitor 50 μM) did it give?
Its value is 68 (3) %.

What about the “residual metabolism (% of control), 2ME2 MG2” value ([1]; inhibitor 50 μM) of the same compound?
The value was 94 (4) %.

And the “residual metabolism (% of control), 2ME2 MG1” value ([1]; inhibitor 100 μM)?
The value was 51 (0) %.

And the “residual metabolism (% of control), 2ME2 MG2” value ([1]; inhibitor 100 μM)?
Its value is 65 (3) %.

And the “% of control metabolism, raloxifene G1” value ([2]; inhibitor 50 μM)?
Its value is 80 (3) %.

What about the “% of control metabolism, raloxifene G2” value ([2]; inhibitor 50 μM) of the same compound?
The value was 137 (9) %.

What about the IC50 [3] of the same compound?
Its IC50 is ~75 µM.

What about the “percentage of control metabolism” value ([3]; inhibitor 25 μM) of the same compound?
The value was 86 (1) %.

And the “% of control metabolism (SD, n = 3), 7-HFC glucuronidation” value ([3]; inhibitor 25 μM)?
The value was 86 (1) %.

What about the “percentage of control metabolism” value ([3]; inhibitor 50 μM) of the same compound?
Its value is 65 (0) %.

And the “% of control metabolism (SD, n = 3), 7-HFC glucuronidation” value ([3]; inhibitor 50 μM)?
The value was 65 (0) %.

What about the “percentage of control metabolism” value ([3]; inhibitor 100 μM) of the same compound?
The value was 26 (1) % and 29 (1) %.

What about the “% of control metabolism (SD, n = 3), 7-HFC glucuronidation” value ([3]; inhibitor 100 μM) of the same compound?
Its value is 26 (1), % and 29 (1) %.

And the “percentage of control metabolism” value ([3]; inhibitor 200 μM)?
Its value is 6 (0) %.

And the “% of control metabolism (SD, n = 3), 7-HFC glucuronidation” value ([3]; inhibitor 200 μM)?
The value was 6 (0) %.

And the “percentage of control metabolism” value ([3]; inhibitor 500 μM)?
Its value is 0.1 (0.1) %.

What about the “% of control metabolism (SD, n = 3), 7-HFC glucuronidation” value ([3]; inhibitor 500 μM) of the same compound?
Its value is 0.1 (0.1) %.

And the “Inhibition Type” value [4]?
The value was “strictly non-competitive”.

And the Ki [4]?
Its Ki is 16 ± 2 µM.

And the “residual metabolism (% of control), E2-17-β-D-glucuronide” value ([5]; inhibitor 50 μM)?
The value was 88 (1) %.

What about the “residual metabolism (% of control), E2-17-β-D-glucuronide” value ([5]; inhibitor 100 μM) of the same compound?
The value was 74 (2) %.

With O=C(OC[C@H]1O[C@@H](OC(=O)c2cc(O)c(O)c(OC(=O)c3cc(O)c(O)c(O)c3)c2)[C@H](OC(=O)c2cc(O)c(O)c(OC(=O)c3cc(O)c(O)c(O)c3)c2)[C@@H](OC(=O)c2cc(O)c(O)c(OC(=O)c3cc(O)c(O)c(O)c3)c2)[C@@H]1OC(=O)c1cc(O)c(O)c(OC(=O)c2cc(O)c(O)c(O)c2)c1)c1cc(O)c(O)c(OC(=O)c2cc(O)c(O)c(O)c2)c1 [Tannic acid] as the compound, how does the “residual metabolism (% of control), 2ME2 MG1” value ([1]; inhibitor 25 μM) read?
Its value is 13 (1) %.

And the “residual metabolism (% of control), 2ME2 MG2” value ([1]; inhibitor 25 μM)?
The value was 49 (7) %.

And the “residual metabolism (% of control), 2ME2 MG1” value ([1]; inhibitor 50 μM)?
The value was “<LOQ”.

And the “residual metabolism (% of control), 2ME2 MG2” value ([1]; inhibitor 50 μM)?
Its value is 28 (1) %.

What about the “residual metabolism (percentage of control), labetalol LG1” value ([7]; inhibitor 10 μM) of the same compound?
The value was 91 (2) %.

And the “residual metabolism (percentage of control), labetalol LG2” value ([7]; inhibitor 10 μM)?
Its value is 88 (4) %.

And the “residual metabolism (percentage of control), labetalol LG1” value ([7]; inhibitor 25 μM)?
The value was 56 (2) %.

And the “residual metabolism (percentage of control), labetalol LG2” value ([7]; inhibitor 25 μM)?
The value was 51 (6) %.

What about the “% of control metabolism, raloxifene G1” value ([2]; inhibitor 10 μM) of the same compound?
Its value is 39 (7) %.

And the “% of control metabolism, raloxifene G2” value ([2]; inhibitor 10 μM)?
The value was 47 (8) %.

And the IC50 [3]?
Its IC50 is 10 µM.

And the “percentage of control metabolism” value ([3]; inhibitor 25 μM)?
Its value is 14 (1) % and 18 (0) %.

What about the “% of control metabolism (SD, n = 3), 7-HFC glucuronidation” value ([3]; inhibitor 25 μM) of the same compound?
The value was 14 (1), % and 18 (0) %.

And the “percentage of control metabolism” value ([3]; inhibitor 50 μM)?
The value was 2 (0) %.

What about the “% of control metabolism (SD, n = 3), 7-HFC glucuronidation” value ([3]; inhibitor 50 μM) of the same compound?
Its value is 2 (0) %.

What about the “percentage of control metabolism” value ([3]; inhibitor 100 μM) of the same compound?
The value was 0 (0) %.

And the “% of control metabolism (SD, n = 3), 7-HFC glucuronidation” value ([3]; inhibitor 100 μM)?
The value was 0 (0) %.

What about the “percentage of control metabolism” value ([3]; inhibitor 200 μM) of the same compound?
The value was 0 (0) %.

What about the “% of control metabolism (SD, n = 3), 7-HFC glucuronidation” value ([3]; inhibitor 200 μM) of the same compound?
Its value is 0 (0) %.

And the “percentage of control metabolism” value ([3]; inhibitor 500 μM)?
The value was 0 (0) %.

And the “% of control metabolism (SD, n = 3), 7-HFC glucuronidation” value ([3]; inhibitor 500 μM)?
The value was 0 (0) %.

And the “Inhibition Type” value [4]?
The value was “Non-competitive”.

And the Ki [4]?
Its Ki is 5.4 ± 0.4 µM.

And the “residual metabolism (% of control), E2-3-β-D-glucuronide” value ([6]; liver 032101, inhibitor 10 μM)?
Its value is 14 (1) %.

And the “residual metabolism (% of control), E2-17-β-D-glucuronide” value ([6]; liver 032101, inhibitor 10 μM)?
The value was 75 (3) %.

What about the “residual metabolism (% of control), E2-3-β-D-glucuronide” value ([6]; liver 062101, inhibitor 10 μM) of the same compound?
The value was 26 (4) %.

And the “residual metabolism (% of control), E2-17-β-D-glucuronide” value ([6]; liver 062101, inhibitor 10 μM)?
The value was 72 (3) %.
